In US9623021B2, “Nuclear receptor binding agents” (GTX, Inc., priority 2007, dated 2017):

Columns and labels:
[1] = test system: uterus; experiment: Uterotropic assay; details: 10 mg/kg/day orally, 3 days
Protocol: Statistical differences among groups were evaluated by one-way ANOVA. Rats were treated for 3 consecutive days and then sacrificed 24 h after the last dose. The body of the uterus was cut just above its junction with the cervix and at the junction of the uterine horns with the ovaries. The uterus was weighed with and without intrauterine fluid. Statistical comparisons were made between the weights of empty uteri.

[2] = test system: Rat Aortic Smooth Muscle Cells (RASMC); experiment: RASMC cell proliferation assay (WST-1); details: 10 μM and 30 μM
[3] = target: ERα ligand binding domain (Homo sapiens (Human), UniProt P03372); experiment: Competitive [3H]-estradiol radioligand binding, ERα (Example 21)
ERα ligand binding domain, sequence (P03372 whole entry, looked up, species assumed, the tested form may be a part): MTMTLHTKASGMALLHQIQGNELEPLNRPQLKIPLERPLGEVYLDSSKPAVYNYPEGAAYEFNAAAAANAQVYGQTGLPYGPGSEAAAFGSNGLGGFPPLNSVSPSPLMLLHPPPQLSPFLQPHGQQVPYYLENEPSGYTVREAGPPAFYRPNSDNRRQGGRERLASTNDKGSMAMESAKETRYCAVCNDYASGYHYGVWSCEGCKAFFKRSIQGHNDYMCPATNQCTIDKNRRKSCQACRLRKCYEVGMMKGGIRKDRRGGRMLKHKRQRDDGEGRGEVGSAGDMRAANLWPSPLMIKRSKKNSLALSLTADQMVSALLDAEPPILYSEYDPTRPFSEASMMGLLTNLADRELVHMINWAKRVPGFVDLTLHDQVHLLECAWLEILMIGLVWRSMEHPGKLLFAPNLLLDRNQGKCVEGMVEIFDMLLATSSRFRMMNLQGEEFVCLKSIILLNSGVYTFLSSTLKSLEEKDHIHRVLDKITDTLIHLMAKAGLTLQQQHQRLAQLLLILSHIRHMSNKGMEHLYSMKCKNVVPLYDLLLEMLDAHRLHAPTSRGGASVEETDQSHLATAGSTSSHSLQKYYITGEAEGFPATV
Protocol: (§1) ER binding affinity was determined via one of the following methods:
(§2) Briefly, the incubation mixture was filtered through a high affinity protein binding filter, and washed several times to remove any unbound radioactivity. The filter plate was air dried and sealed on the bottom.
(§3) Following incubation, plates were harvested onto GF/B filters and radioactivity was measured with a TopCount NXT (PerkinElmer). Nonspecific binding was subtracted from total binding to yield specific binding.

[4] = target: ERβ ligand binding domain (Homo sapiens (Human), UniProt Q92731); experiment: Competitive [3H]-estradiol radioligand binding, ERβ (Example 21); details: ratio between the binding constants of ER-α and ER-β
ERβ ligand binding domain, sequence (Q92731 264-498, species assumed): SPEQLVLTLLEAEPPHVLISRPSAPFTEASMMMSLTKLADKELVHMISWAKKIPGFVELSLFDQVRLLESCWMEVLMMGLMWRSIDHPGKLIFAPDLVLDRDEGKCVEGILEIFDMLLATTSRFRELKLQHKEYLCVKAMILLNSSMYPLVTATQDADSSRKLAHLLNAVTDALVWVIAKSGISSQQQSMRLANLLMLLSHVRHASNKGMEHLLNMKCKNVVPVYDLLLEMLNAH
Protocol: as §1, §2, §3

[5] = target: ER-α (Rattus norvegicus (Rat), UniProt P06211); format: cell-based; details: 100 nM NRBA compared to 1 nM estradiol
Protocol: COS or 293 cells were plated in DME without phenol red+10% cs FBS at 90,000 cells per well in 24 well plates, and were transfected with 0.25 μg of the vector “ERE-LUC”, where a firefly luciferase gene was driven by two estrogen responsive elements and 0.02 μg of the control CMV-LUC, Renilla where a luciferase gene was driven by a CMV promoter. […] All the receptors were cloned from rat tissue into the PCR3.1 vector backbone. Twenty four hours post transfection, cells were treated with compounds of this invention, estrogen, DHT, and other NRBAs or combinations thereof. Cells were harvested 48 hrs after transfection, and assayed for firefly and Renilla luciferase activity.

[6] = test system: paw edema; experiment: Carrageenan-induced paw edema (acute inflammation model); format: in vivo; details: per-oral, 1 hr prior to Carrageenan challenge; measured 4 hours post-Carrageenan injection
Protocol: FIG. 14 depicts the effect of 12b on the edema volume which was induced by Carrageenan (i.e. Carrageenan-induce raw paw edema as an acute inflammation model).
To determine the anti-inflammatory effects of ER-β NRBAs in vivo, animal paws were injected with carrageenan, which elicits an acute local inflammatory response. Per-oral treatment of 12b.

[7] = test system: LNCaP prostate cancer cells; experiment: LNCaP prostate cancer cell proliferation (3H thymidine incorporation); format: cell-based; details: treated for 6 days, FIG. 21
Protocol: (§4) The effects of treatment of an ER-β selective NRBA of this invention on cancer cell proliferation was examined using LNCaP prostate cancer cells and C-26 colon cancer cells. LNCaP or C-26 cells were plated in growth medium in 24 well and 6 well plates, respectively. LNCaP cells were treated for 6 days and C-26 cells were treated for 3 days at the indicated concentration. ^3H thymidine incorporation was measured at the end of treatment as an indicator of cell proliferation.

[8] = test system: C-26 colon cancer cells; experiment: C-26 colon cancer cell proliferation (3H thymidine incorporation); format: cell-based; details: treated for 3 days, FIG. 22
Protocol: as §4

[9] = test system: LNCaP cells and human prostate stromal cells xenograft; experiment: LNCaP-stromal cell xenograft tumor growth; format: in vivo, nude mice; details: 30 mg/kg/day for 21 days, by day 21
Protocol: Prostate tumor xenografts were established with LNCaP cells and human prostate stromal cells in nude mice to establish the in vivo anti-proliferative effects of these ER-β NRBAs. A 4:1 ratio (based on cell number) of LNCaP:stroma cells was injected subcutaneously in nude mice and allowed to grow until they attained 100 mm^3 in volume, as measured by calipers. […] Tumor volumes were measured twice a week and percent tumor volume calculated, after 10, 14 and 21 days.

| Structure (SMILES) | uterine growth / uterine weight [1] | cell numbers compared to day 0 [2] | Ki [3] [µM] | Ki Ratio (ER-α/ER-β) [4] | Estradiol activity at 100 nM, ER-α [5] [%] | reduction in paw edema [6] [%] | growth of LNCaP prostate cancer cells [7] | growth of C-26 colon cancer cells [8] | tumor growth (percent tumor volume) [9] |
| --- | --- | --- | --- | --- | --- | --- | --- | --- | --- |
| CC/C(=C(\c1ccccc1)c1ccc(OCCN(C)C)cc1)c1ccccc1 [Tamoxifen, tamoxifen] | stimulated the proliferation of uterus significantly | toxicity |  |  |  |  |  |  |  |
| O=c1c2ccc(O)cc2c(Br)cn1-c1ccc(O)cc1 [Compound 12b, 4-bromo-6-hydroxy-2-(4-hydroxyphenyl)-isoquinolin-1(2H)-one] |  |  | 0.998 | 20 | 31.2 | 53 | significantly inhibited the growth | significantly inhibited the growth | inhibited the growth of tumor significantly |
